The source of these data is US9371337B2, “β-lactamase inhibitors” (The Regents of the University of California, priority 2011, dated 2016).

This experiment concerns AmpC-overproducing Escherichia coli strain 4. As to the kind of experiment: Mouse model of bacteremia and sepsis, survival. It is filed as in vivo, OF1 mice. The note with it: 120 h post infection; ip at 0.5, 3.5, 6.5 h; imipenem 50 mg/kg, cefotaxime 50 mg/kg, cefotaxime:CR161 50:200 mg/kg. How it is done:
FIG. 17. Percentage of survival of mice infected with AmpC-overproducing Escherichia coli over the course of 5 days (120 h). Mice were inoculated by intraperitoneal injection with AmpC-overproducing Escherichia coli strain 4 (1±0.5 10^9 colony-forming units) and treated at 0.5, 3.5, 6.5 h after infection by intraperitoneal injection of 50 mg/kg imipenem (□, n=20), 50:200 mg/kg cefotaxime:CR161 combination (▪, n=17), 50 mg/kg cefotaxime (●, n=20) or sterile isotonic saline (◯, n=20).
Efficacy in a mouse model of infection. We had not observed such substantial reversal of bacterial resistance to β-lactams, across such a broad spectrum of clinical isolates, for previous series of boronic acid inhibitors of β-lactamase; indeed, this lack of efficacy had motivated this study. These new cell-culture MIC values inspired us to investigate the efficacy of one of these compounds in a mouse model of bacteremia and sepsis. […] Mice were treated with cefotaxime alone, cefotaxime combined with compound CR161, with sterile isotonic saline, and with imipenem as a reference treatment of systemic infections by cephalosporin-resistant enterobacteriaceae (FIG. 17); 20 mice were used in each clade. […]
OF1 mice 4-5 weeks of age and weighing 20-25 g were used in this study. […] The survival of mice in each group was monitored every 6 h for 5 days after infection. […]

As for `C[C@@H](O)[C@H]1C(=O)N2C(C(=O)O)=C(SCCN=CN)C[C@H]12` [Imipenem, imipenem], the survival worked out at 90%.
